Structures can show the parent of a compound that is named as a salt.
Key:
[1] = test system: Carragenine induced edema; assay: Anti-inflammatory activity on carragenine induced edema (Table 11); format: in vivo; details: for % inhibition: 50 mg/Kg p.o.
Joint's diameter = Joint's diameter in arthritis (Table 7); format: in vivo; design: unit not given here
SH Groups in serum = assay: SH groups in serum (Table 8); format: in vivo; details: arthritis checks 70, 77
[2] = test system: Freund's adjuvant induced arthritis; assay: Freund's adjuvant induced arthritis, edema inhibition
[3] = test system: erytrocytes sedimetation rate (ESR); assay: Erytrocytes sedimetation rate (ESR) (Table 8); format: in vivo; design: unit not given here; details: arthritis checks 41, 56
[4] = test system: Carragenine induced edema; assay: Carragenine induced edema, first test (Table 2); format: in vivo
Text: |ANTI-INFLAMMATORY ACTIVITY. |Carragenine induced edema, first test.

pain threshold = assay: Analgesic activity, RANDALL-SELLITO pain threshold; format: in vivo
Text: | RANDALL-SELLITO pain threshold

[5] = test system: Hot plate, endurance time at 52° C.; assay: Analgesic activity, Hot plate (I); format: in vivo; details: 50 mg/Kg p.o., 2 hours
Method: (§1) Dose endurance time at 52° C. over checks

in vivo = details: po, rat, p.o., read-out: DL50 (the source's name)
[6] = test system: Hot plate, endurance time at 52° C.; assay: Analgesic activity, Hot plate (II); format: in vivo
Method: as §1

[7] = test system: Carragenine induced edema; assay: Activity on carragenine induced edema (Table 9); format: in vivo
Text: |Activity on carragenine induced edema.

ulcerogenic effect = assay: Ulcerogenic effect; format: in vivo; details: dose 50 mg
[8] = 20 mg/Kg p.o., 1 week, arthritis checks 0.48, 0.38
[9] = 20 mg/Kg p.o., 2 weeks, arthritis checks 0.71, 0.75
[10] = 20 mg/Kg p.o., 3 weeks, arthritis checks 0.81, 0.79
[11] = 20 mg/Kg p.o., 4 weeks, arthritis checks 0.85, 0.89
[12] = 40 mg/Kg p.o., 1 week, arthritis checks 0.48, 0.38
[13] = 40 mg/Kg p.o., 2 weeks, arthritis checks 0.71, 0.75
[14] = 40 mg/Kg p.o., 3 weeks, arthritis checks 0.81, 0.79
[15] = 40 mg/Kg p.o., 4 weeks, arthritis checks 0.85, 0.89

CC(C)Cc1ccc(C(C)C(=O)O)cc1 (centres unmarked) [Ibuprofen]
% inhibition [1]: 40% | Joint's diameter (Joint's diameter; [8]): 0.31 | Joint's diameter (Joint's diameter; [9]): 0.53 | Joint's diameter (Joint's diameter; [10]): 0.65 | Joint's diameter (Joint's diameter; [11]): 0.81 | Joint's diameter (Joint's diameter; [12]): 0.35 | Joint's diameter (Joint's diameter; [13]): 0.60 | Joint's diameter (Joint's diameter; [14]): 0.75 | Joint's diameter (Joint's diameter; [15]): 0.80 | SH groups diminution in % (SH Groups in serum; 20 mg/Kg p.o.): 78% | SH groups diminution in % (SH Groups in serum; 40 mg/Kg p.o.): 73% | Edema inhibition % ([2]; 20 mg/Kg p.o., 2 days): 34% | Edema inhibition % ([2]; 20 mg/Kg p.o., 4 days): 29% | Edema inhibition % ([2]; 20 mg/Kg p.o., 8 days): 19% | Edema inhibition % ([2]; 20 mg/Kg p.o., 12 days): 24% | Edema inhibition % ([2]; 20 mg/Kg p.o., 16 days): 14% | Edema inhibition % ([2]; 20 mg/Kg p.o., 24 days): 4% | Edema inhibition % ([2]; 40 mg/Kg p.o., 2 days): 32% | Edema inhibition % ([2]; 40 mg/Kg p.o., 4 days): 17% | Edema inhibition % ([2]; 40 mg/Kg p.o., 8 days): 26% | Edema inhibition % ([2]; 40 mg/Kg p.o., 12 days): 19% | Edema inhibition % ([2]; 40 mg/Kg p.o., 16 days): 27% | Edema inhibition % ([2]; 40 mg/Kg p.o., 20 days): 19% | Edema inhibition % ([2]; 40 mg/Kg p.o., 24 days): 9% | E.S.R. ([3]; 20 mg/Kg p.o.): 58 | E.S.R. ([3]; 40 mg/Kg p.o.): 30 | % inhibition ([4]; 12.5 mg/Kg p.o.): 27% | % inhibition ([4]; 25 mg/Kg p.o.): 33% | % inhibition ([4]; 50 mg/Kg p.o.): 47% | % inhibition ([4]; 100 mg/Kg p.o.): 54%

CC=CCC(C(=O)O)c1ccc(-c2ccc(F)cc2)cc1 (centres unmarked) [SCR 159, 2-[4-biphenylyl-(4' fluoro)]4-hexenoic acid]
% inhibition [1]: 32% | RANDALL-SELLITO pain threshold over checks (pain threshold; 23,7 mg/Kg p.o., 1 hour): 55 | RANDALL-SELLITO pain threshold over checks (pain threshold; 23,7 mg/Kg p.o., 2 hours): 7 | RANDALL-SELLITO pain threshold over checks (pain threshold; 35,6 mg/Kg p.o., 1 hour): 49 | RANDALL-SELLITO pain threshold over checks (pain threshold; 35,6 mg/Kg p.o., 2 hours): 32 | RANDALL-SELLITO pain threshold over checks (pain threshold; 53,45 mg/Kg p.o., 1 hour): 47 | RANDALL-SELLITO pain threshold over checks (pain threshold; 53,45 mg/Kg p.o., 2 hours): 16 | endurance time at 52° C. over checks [5]: 38 | LD50 (in vivo): 900 mg/kg | endurance time at 52° C. over checks ([6]; Hot plate (II), 35,6 mg/Kg p.o., 1 hour): 22 | endurance time at 52° C. over checks ([6]; Hot plate (II), 35,6 mg/Kg p.o., 2 hours): 43 | endurance time at 52° C. over checks ([6]; Hot plate (II), 53,45 mg/Kg p.o., 1 hour): 45 | endurance time at 52° C. over checks ([6]; Hot plate (II), 53,45 mg/Kg p.o., 2 hours): 29 | endurance time at 52° C. over checks ([6]; Hot plate (II), 80,18 mg/Kg p.o., 1 hour): 26 | Inhibition % ([7]; 53 mg/Kg p.o.): 29% | Inhibition % ([7]; 80 mg/Kg p.o.): 26% | Inhibition % ([7]; 120 mg/Kg p.o.): 26%

CC=CCC(C(=O)O)c1ccc(-c2ccccc2)cc1 (single isomer, unassigned) [SCR 153, Triethanolamine salt of dextrogyre form]
anti-inflammatory effect compared with 5 mg of indomethacin ([1]; 50 mg SCR 153 vs 5 mg indomethacin): near equal to the one obtained with 5 mg of indomethacin | % inhibition [1]: 37% | Joint's diameter (Joint's diameter; [8]): 0.46 | Joint's diameter (Joint's diameter; [9]): 0.61 | Joint's diameter (Joint's diameter; [10]): 0.62 | Joint's diameter (Joint's diameter; [11]): 0.73 | Joint's diameter (Joint's diameter; [12]): 0.24 | Joint's diameter (Joint's diameter; [13]): 0.39 | Joint's diameter (Joint's diameter; [14]): 0.44 | Joint's diameter (Joint's diameter; [15]): 0.52 | SH groups diminution in % (SH Groups in serum; 20 mg/Kg p.o.): 79% | SH groups diminution in % (SH Groups in serum; 40 mg/Kg p.o.): 48% | Edema inhibition % ([2]; 20 mg/Kg p.o., 2 days): 40% | Edema inhibition % ([2]; 20 mg/Kg p.o., 4 days): 24% | Edema inhibition % ([2]; 20 mg/Kg p.o., 8 days): 52% | Edema inhibition % ([2]; 20 mg/Kg p.o., 12 days): 49% | Edema inhibition % ([2]; 20 mg/Kg p.o., 16 days): 30% | Edema inhibition % ([2]; 20 mg/Kg p.o., 20 days): 22% | Edema inhibition % ([2]; 20 mg/Kg p.o., 24 days): 10% | Edema inhibition % ([2]; 40 mg/Kg p.o., 2 days): 60% | Edema inhibition % ([2]; 40 mg/Kg p.o., 4 days): 40% | Edema inhibition % ([2]; 40 mg/Kg p.o., 8 days): 56% | Edema inhibition % ([2]; 40 mg/Kg p.o., 12 days): 61% | Edema inhibition % ([2]; 40 mg/Kg p.o., 16 days): 59% | Edema inhibition % ([2]; 40 mg/Kg p.o., 20 days): 56% | Edema inhibition % ([2]; 40 mg/Kg p.o., 24 days): 55% | ulcerogenic effect (ulcerogenic effect): it is doubtful that above dose (50 mg) of SCR 153 could have any ulcerogenic effect | E.S.R. ([3]; 20 mg/Kg p.o.): 59 | E.S.R. ([3]; 40 mg/Kg p.o.): 32 | % inhibition ([4]; 12.5 mg/Kg p.o.): 24% | % inhibition ([4]; 25 mg/Kg p.o.): 29% | % inhibition ([4]; 50 mg/Kg p.o.): 45% | % inhibition ([4]; 100 mg/Kg p.o.): 53%
